Here are results for one compound from patent US8507547B2, “Anti-fatigue agents and oral compositions containing andrographolide as active ingredient” (Suntory Holdings Limited, priority 2007, dated 2013).

The nature of data set [1]: Stability of andrographolide. Type of data set: physicochemical. An excerpt: Thus andrographolide can be contained in the composition of the present invention without being processed or made into various forms according to the purpose by use of methods that are publicly known among people skilled in the art; for instance, it can be made into food, drink, seasoning, alcoholic beverages, functional food, pharmaceuticals, or the like. Especially the composition of the present invention can be made into pharmaceuticals for oral administration or food (e.g., functional food, dietary supplement, food with nutrient function, food for specified use, food for specified health use, nutritional supplement, health food, food for diet therapy, general health food, supplements).

Data set [2] can be described thus: Safety of administered andrographolide (1000 mg per kilogram of body weight). It counts as in vivo. Conditions: 1000 mg of andrographolide per kilogram of body weight. As to the method: Andrographis paniculata containing andrographolide has conventionally been taken in orally and is considered to be infinitely safe. […] It should be noted, however, that there is a report saying that, when an infusion (0.5 g per mouse) or a water extract (1 g of crude drug per mouse) of Andrographis paniculata was injected into abdominal cavities of two mice, they died within 24 hours (Chuyakudaijiten, First Issue, Vol. 3). […] Accordingly, the andrographolide in the composition of the present invention is an active ingredient that is infinitely safe. Thus the amount of andrographolide to be contained is not particularly limited, as long as the amount is adequate to produce a desired effect and not to be toxic; the amount can be appropriately determined according to targets, pathological condition and the stage of illness, impact on taste (slightly bitter), and other factors.

The subject of data set [3] is fatigue animal models such as mice and rats. Nature of the data set: Fatigue animal models such as mice and rats (summary of effective intake). It counts as in vivo. As to the method: Accordingly, the amount of andrographolide to be contained in the composition of the present invention is 0.01-500 mg per kilogram of body weight, preferably 0.1-50 mg per kilogram of body weight, more preferably 0.1-10 mg per kilogram of body weight, especially preferably 0.25-10 mg per kilogram of body weight, per daily amount of the composition to be taken by animals including humans. Especially in the case in which andrographolide is to be orally administered to humans (adult) to obtain anti-fatigue action, it is generally suitable to administer 0.1-100 mg of andrographolide, preferably 0.1-50 mg, more preferably 0.1-10 mg, especially preferably 0.25-10 mg, per daily amount of andrographolide to be taken.

For a further data set, the system named is Balb/c mice. Briefly: Measurement of liver fatigue (serum GOT, GPT, liver TBARS) after water immersion and sleep disturbance. It counts as in vivo. As to conditions: 8 mg per kilogram of body weight orally once daily during two days of water immersion. As to the method: The second test is measurement of liver fatigue. This is described in detail below in Example 2. […] In a liver of this model, GOT and GPT levels increased, compared with those of a normally-reared group. GOT (glutamic oxalacetic transaminase) and GPT (glutamic pyruvic transaminase), which are enzymes present in hepatic cells, are known to escape into blood when hepatic cells are damaged. Therefore, a level of damage on the liver is determined by measuring GOT and GPT in blood. […] It is inferred that the long-term general fatigue condition caused alteration in liver function, disruption of oxygen reduction system balance, and the like to result in accumulation of lipid peroxide. This is considered to support the fact that this model is an organ fatigue model.
That is to say, since this animal model is also an organ fatigue model, anti-fatigue action against organ fatigue would be confirmed if it is observed that administration of the test substance, for instance, returns a changed organ fatigue marker, such as GOT, GPT, and TBARS mentioned above, to a normal level and reduces change in the organ markers. Such anti-fatigue action is considered to regulate overall activity of internal organs to condition metabolism, thereby being involved in reduction of physical and mental fatigue stress, maintenance of energy, improvement in endurance, and the like.
Effect of andrographolide on fatigue from water immersion and sleep disturbance was examined using a partially modified method of Tanaka et al. (Neuroscience Let. 352, 159-162, 2003). […] Blood serum was separated from the blood, and GOT (glutamic oxalacetic transaminase) and GPT (glutamic pyruvic transaminase) in the blood serum were measured with a small-sized biochemistry automatic analyzer (Model 7070, Hitachi High-Technologies Corporation). Further, levels of lipid peroxide from liver were measured as a level of TBARS (thiobarbituric acid reactive substances). […] Then, the TBARS levels were measured in accordance with the method of Ohkawa et al. Anal. Biochem. 95. […]

In the case of `C=C1CC[C@@H]2[C@](C)(CO)[C@H](O)CC[C@@]2(C)[C@@H]1C/C=C1/C(=O)OC[C@H]1O` [andrographolide], in data set [1], the “stability to pH, moisture, oxidation, light, heat” value is “high stability”. In data set [2], the abnormality after administration entry is reported as “no abnormality was observed”. Further, the “intake producing desired anti-fatigue action” value in data set [3] (taken in advance or during fatigue stress to prevent or reduce mental, physical and organ fatigue) is recorded as 0.25-200 mg per kilogram of body weight; in data set [3] (taken in to promote recovery from physical fatigue already developed) it was 0.5-8 mg per kilogram of body weight. Moreover, in the data set with Balb/c mice (FIG. 2(A)), the “GOT level in the blood serum” value was “prevented from increasing”. In addition, the “GPT level in the blood serum” value with Balb/c mice (FIG. 2(B)) was “prevented from increasing”. Further, the “liver TBARS level” value with Balb/c mice (FIG. 2(C)) is listed as “prevented from increasing”.
